Laboratory results as given in PubChem BioAssay (NCI).
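The compound was tested at five concentrations on cells cultured in 96-well plates, with a 48-hour exposure period. The concentration for full growth arrest is given as TGI.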

What was measured:
Test in all cases: growth of human tumour cells (NCI), 48 h
786-0 renal = tested on: 786-0 renal
HT29 colon = tested on: HT29 colon
K-562 leukemia = tested on: K-562 leukemia
KM12 colon = tested on: KM12 colon
MALME-3M melanoma = tested on: MALME-3M melanoma
MDA-MB-435 = tested on: MDA-MB-435
MOLT-4 leukemia = tested on: MOLT-4 leukemia
NCI-H226 lung = tested on: NCI-H226 lung
NCI-H460 lung = tested on: NCI-H460 lung
OVCAR-5 ovarian = tested on: OVCAR-5 ovarian
RXF 393 renal = tested on: RXF 393 renal
SF-295 CNS = tested on: SF-295 CNS
SF-539 CNS = tested on: SF-539 CNS
SK-MEL-5 melanoma = tested on: SK-MEL-5 melanoma
SN12C renal = tested on: SN12C renal
SNB-19 CNS = tested on: SNB-19 CNS
SNB-75 CNS = tested on: SNB-75 CNS
SW-620 colon = tested on: SW-620 colon
U251 CNS = tested on: U251 CNS
UACC-62 melanoma = tested on: UACC-62 melanoma

Row | SMILES | TGI (786-0 renal) [µM] | TGI (HT29 colon) [µM] | TGI (K-562 leukemia) [µM] | TGI (KM12 colon) [µM] | TGI (MALME-3M melanoma) [µM] | TGI (MDA-MB-435) [µM] | TGI (MOLT-4 leukemia) [µM] | TGI (NCI-H226 lung) [µM] | TGI (NCI-H460 lung) [µM] | TGI (OVCAR-5 ovarian) [µM] | TGI (RXF 393 renal) [µM] | TGI (SF-295 CNS) [µM] | TGI (SF-539 CNS) [µM] | TGI (SK-MEL-5 melanoma) [µM] | TGI (SN12C renal) [µM] | TGI (SNB-19 CNS) [µM] | TGI (SNB-75 CNS) [µM] | TGI (SW-620 colon) [µM] | TGI (U251 CNS) [µM] | TGI (UACC-62 melanoma) [µM]
1 | O=CC(=C(I)I)c1ccccc1 | 5.78 | > 32.5 | 1.34 | 12.7 | 4.4 | 5.65 | 0.944 | 32 | 40.9 | 15.1 | 3.58 | 31.2 | 5.17 | 14 | 6.39 | 21.1 | 9.97 | 2.17 | 14.5 | 17.5
2 | O=C(CCC(NC(=O)OCc1ccccc1)C(=O)OCc1ccccc1)Nc1ccc(OCc2ccccc2)cc1 (stereo not given) | 17.4 | > 31.6 | > 31.6 | > 31.6 | > 31.6 | > 31.6 | > 31.6 | > 31.6 | > 31.6 | > 100 | > 31.6 | > 31.6 | > 31.6 | > 10 | > 31.6 | > 31.6 | > 31.6 | > 31.6 | 28 | > 31.6
3 | CC(NNC(=O)c1ccncc1)c1ccc(F)cc1 (stereo not given) | > 100 | > 100 | > 100 | > 100 | > 100 | > 100 | > 100 | > 100 | > 100 | > 100 | > 100 | > 100 | > 100 | > 100 | > 100 | > 100 | > 100 | > 100 | > 100 | > 100
4 | COc1ccc(OCc2nc3cc(C(F)(F)F)ccc3nc2-c2ccccc2)cc1 | > 100 | > 100 | > 100 | > 100 | > 100 | > 100 | > 100 | > 100 | > 100 | > 100 | > 100 | > 100 | > 100 | > 100 | > 100 | > 100 | > 100 | > 100 | > 100 | > 100
5 | COC(=O)c1ccccc1CC1Cc2ccc3c(c2C1=O)CCC3 (stereo not given) | > 100 | > 100 | > 100 | > 100 | > 100 | 78.7 | > 100 | > 100 | > 100 | > 100 | > 100 | > 100 | > 100 | 62.3 | > 100 | > 100 | 80.7 | > 100 | > 100 | > 100
6 | O=C1C=C2C(=NC34CCCCC3C(c3ccccc3)C3=C(c5ccccc5CC3)N24)c2ccccc21 (stereo not given) | > 10 | > 10 | > 10 | > 10 | > 10 | > 10 | > 10 | > 10 | > 10 | > 10 | > 10 | > 10 | > 10 | > 10 | > 10 | > 10 | > 10 | > 10 | > 10 | > 10
7 | O=[N+]([O-])c1ccc(-c2nnc(C34CC5CC(CC(C5)C3)C4)o2)cc1 | > 100 | > 100 | > 100 | > 100 | > 100 | > 100 | > 100 | > 100 | > 100 | > 100 | > 100 | > 100 | > 100 | > 100 | > 100 | > 100 | > 100 | > 100 | > 100 | > 100
8 | CCC1NC(=O)C1NC(=O)OC (stereo not given) | > 100 | > 100 | > 100 | > 100 | > 100 | > 100 | > 100 | > 100 | > 100 | > 100 | > 100 | > 100 | > 100 | > 100 | > 100 | > 100 | > 100 | > 100 | > 100 | > 100
9 | O=C(/C=C/c1ccccc1)CCN1CCN(CCC(=O)/C=C/c2ccccc2)CC1 | 18.9 | 30.4 | > 100 | 17 | 30.9 | 14.8 | 85.5 | 64.4 | 31 | 30.5 | 28.8 | 31.2 | 28.8 | 28.7 | 21.7 | 32.6 | 29.7 | 17.4 | 30.3 | 30.2
10 | c1ccc([P+](Cc2ccc(C[P+](c3ccccc3)(c3ccccc3)c3ccccc3)cc2)(c2ccccc2)c2ccccc2)cc1 | > 100 | > 100 | 29.8 | > 100 | > 100 | > 100 | > 100 | > 100 | > 100 | > 100 | > 100 | > 100 | > 100 | 90.1 | > 100 | > 100 | > 100 | > 100 | > 100 | > 100
